Earlier results on one molecule are cited in patent publication US11273137B2, “Methods and compositions to prevent and treat disorders associated with mutations in the ODC1 gene” (Board of Trustees of Michigan State University, priority 2018, dated 2022).

Data set [1] relates to transgenic mice overexpressing c-terminally deleted ODC (p.P427X).
Setting [2] is: transgenic mice with c-terminally deleted ODC.

Take `NCCC[C@](N)(C(=O)O)C(F)F` [DFMO, alpha-difluoromethylornithine]: the water solubility result is on record as “water soluble”. Besides, the “phenotypic changes (skin and hair follicle abnormalities, alopecia)” value in data set [1] (heterozygous transgenic mice with c-terminal 34 aa ODC deletion targeted to the skin) was “reversible”. Further, the hair growth result in data set [1] (mice with complete hair loss) is “partially restored hair growth”. Besides, in data set [1] (setting [2]), the hair loss entry is “prevented hair loss” and the “reappearance of normal follicles” value is on record as “activated reappearance of normal follicles”.
